Key:
[1] = tested on: transfected CHO cells expressing recombinant human monoclonal antibody (cell line 2); experiment: 24-deep well culture, cell line 2: VCD, viability, titer, qP; assay type: cell-based, Chinese hamster; details: 5 microM
Method: Transfected CHO cells expressing a recombinant human monoclonal antibody (mAb) are cultured in 24-deep well plates with seeding density at 1×10^7/mL for five days. At certain time periods, samples of the cultures are taken and evaluated for viable cell density (VCD; expressed in 10^6 cells/mL); percent viability (as determined by trypan blue exclusion); titer of recombinant protein (expressed in grams of protein per liter of culture, or g/L, as determined by Protein A affinity HPLC); qP, or specific productivity (expressed in picograms of recombinant protein per cell per day, or pg/c/d), the presence or absence of high molecular weight substances (usually an indicator of protein aggregation; expressed as % of the total protein); and the relative percentage of Mannose 5, a major intermediate glyco-form that attaches to N297 of the mAb. N-linked glycosylation has an impact on the tertiary structure of the antibody and may affect Fc mediated antibody effector functions. The majority of the human Fc glycans are complex biantennary structures with galactose as the prevalent terminal sugar. Immature glyco-forms, such as high-mannose glycol-forms (Man5-9), are of concern due to potential higher plasma clearance rate (as compared to the clearance rate of complex glycan linked mAbs).
Compounds are further evaluated essentially as described in Example 2 herein. Briefly, transfected CHO cells expressing recombinant human monoclonal antibody (mAb; two different cell lines expressing two different mAb, referred to as cell line 1 and cell line 2) are cultured in 24-deep well plates in the presence or absence of the compounds. At specified time points, samples of the cultures are taken and evaluated for viable cell density (VCD; expressed in 10^6 cells/mL); percent viability (as determined by any method known in the art); titer of recombinant protein (expressed in grams of protein per liter of culture, or g/L, as determined by Protein A affinity HPLC); qP, or specific productivity (expressed in picograms of recombinant protein per cell per day, or pg/c/d). Additional parameters measure include the presence or absence of high molecular weight substances (usually an indicator of protein aggregation; expressed as % of the total protein); and the relative percentage of Mannose 5. For comparison purposes, Compounds A and B, which had been previously tested, were tested again.

[2] = tested on: transfected CHO cells expressing recombinant human monoclonal antibody (cell line 1); experiment: 24-deep well culture, cell line 1: VCD, viability, titer, qP; assay type: cell-based, Chinese hamster; details: for Titer / VCD / Viability / qP: Cell Line 1, 5 microM
Summary of the method: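 Antibody-expressing CHO lines were grown in 24-deep-well plates with or without compound. Cultures were sampled at set time points for VCD (10^6 cells/mL), viability, titer (g/L, by Protein A HPLC) and specific productivity qP (pg/cell/day). High-molecular-weight species and Mannose 5 share were also measured.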

Colo205 = experiment: [14C]-thymidine incorporation cell proliferation inhibition assay; assay type: cell-based; details: Homo sapiens, COLO 205, 72 hour incubation
Method: The cell proliferation inhibition potency of the cell cycle inhibitors was determined by using a [^14C]-thymidine incorporation assay. Exponentially growing cells (Colo205) were seeded in a 96-well Cytostar T plate (GE Healthcare Biosciences) at a density of 5×10^3 cells/well and incubated overnight. Serially diluted compounds and 0.1 μCi of [^14C]-thymidine (GE Healthcare Biosciences) were added to each well on the following day. After 72 hour incubation, isotope incorporation was determined with a β plate counter (Wallac). IC50 values of the compounds in the above assays were determined by non-linear regression analysis using Prism (GraphPad Software).

CHO cells [3] = experiment: Cell cycle analysis: propidium iodide staining and FACS; assay type: cell-based, Chinese hamster; details: 5 microM
Method: (§1) In one set of experiments, a cell cycle analysis was performed for various cell cycle inhibitory compounds. Briefly, CHO cells are grown in 24 deep well plate (for example, Corning Axygen deep well plates; Corning, Amsterdam, The Netherlands), using standard cell-culture medium, under conditions promoting growth of the cells (for example 36 degreesC, 5% CO2) in the presence of various cell cycle inhibitors. Samples are collected at various time points, and cell cycle profiles are obtained by propidium iodide (PI) staining followed by fluorescence-activated cell sorting (FACS) analysis. Results for compounds 6-acetyl-8-cyclopentyl-5-methyl-2-((5-(1-piperazinyl)-2-pyridinyl)amino)pyrido[2,3-d][…] (Compound A) and N-(6-(4-(dimethylamino)-1-piperidinyl)-3-pyridazinyl)-9-(trans-4-methylcyclohexyl)-9H-pyrido[4′,3′,:4,5]pyrrolo[2,3-d]pyrimidin-2-amine (Compound B) are shown in Table 1 below.

CDK4/Cyclin D1 = biological target: T1, CDK4/Cyclin D1 (Homo sapiens, UniProt P11802); experiment: CDK4 filtration kinase assay; assay type: biochemical; details: CDK4/Cyclin D1, Rb fragment substrate, [33P]-ATP
T1 construct: purchased Cell Signaling Technology
T1 sequence (P11802 whole entry, species assumed, the tested form may be a part): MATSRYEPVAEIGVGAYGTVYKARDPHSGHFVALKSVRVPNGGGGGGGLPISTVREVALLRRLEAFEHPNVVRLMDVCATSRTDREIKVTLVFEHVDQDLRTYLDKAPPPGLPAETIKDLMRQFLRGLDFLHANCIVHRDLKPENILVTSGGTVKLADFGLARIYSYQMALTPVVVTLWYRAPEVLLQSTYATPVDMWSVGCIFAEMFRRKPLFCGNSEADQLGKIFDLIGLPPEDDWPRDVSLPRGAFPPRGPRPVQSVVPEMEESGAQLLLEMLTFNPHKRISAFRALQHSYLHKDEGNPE
T1 sequence (P24385 whole entry partner, species assumed, the tested form may be a part): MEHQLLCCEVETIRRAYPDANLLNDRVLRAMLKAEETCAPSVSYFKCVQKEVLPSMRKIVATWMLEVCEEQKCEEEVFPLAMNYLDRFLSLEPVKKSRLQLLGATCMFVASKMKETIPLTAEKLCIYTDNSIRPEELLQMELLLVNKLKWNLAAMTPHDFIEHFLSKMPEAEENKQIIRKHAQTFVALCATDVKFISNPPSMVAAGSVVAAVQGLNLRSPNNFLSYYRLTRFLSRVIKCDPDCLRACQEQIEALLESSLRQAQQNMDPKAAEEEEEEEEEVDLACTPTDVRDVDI
Method: The CDK4 inhibitory activity of the cell cycle inhibitors was determined with a filtration kinase assay. The compounds, kinase and substrate diluted in the kinase buffer (20 mM Tris, pH7.4, 50 mM NaCl, 1 mM DTT, 0.1% BSA) were sequentially added to a 96-well Multiscreen HTS filtration plate (Millipore). The final 100 μL reaction mixture in each well contained 0.3 μg of CDK4/Cyclin D1 (Cell Signaling Technology), 1 μg of Rb fragment (aa773-928, Millipore) for the CDK4 assay and 1 μCi of [^33P]-ATP. The mixture was incubated at room temperature for 1 hour. The proteins in the reaction were then precipitated and washed with cold TCA solution using an aspiration/filtration vacuum system. The plates were dried at room temperature, and the retained radioactivity was measured by scintillation counting. IC50 values of the compounds in the above assays were determined by non-linear regression analysis using Prism (GraphPad Software).

CHO cells [4] = experiment: Initial dosage and time course study: cell viability and growth arrest (Table 4); assay type: cell-based, Chinese hamster
Method: as §1
Various compounds were tested in an initial dosage and time course study to ascertain their effects on cell viability and growth phase arrest substantially as described previously in Example 1. Compounds were evaluated for effect, or lack thereof, on viability, as well as their ability to cause growth arrest. Compounds that maintained at least 80% cell viability at one or more concentrations for the five day duration of this assay were regarded as having relatively little or no cell cytotoxicity.

[5] = tested on: mammalian cells such as CHO cells; experiment: Predicted specific productivity of recombinant protein for Compound M; assay type: cell-based, Chinese hamster; details: predicted from Table 4, structural similarity, CDK4 assay and cell proliferation assay

CN(C)C1CCN(c2ccc(Nc3ncc4c5ccncc5n([C@H]5CC[C@H](C)CC5)c4n3)nn2)CC1 [Compound B, N-(6-(4-(dimethylamino)-1-piperidinyl)-3-pyridazinyl)-9-(trans-4-methylcyclohexyl)-9H-pyrido[4′,3′,:4,5]pyrrolo[2,3-d]pyrimidin-2-amine]
Titer ([1]; D 1): 0.29 g/L | VCD ([1]; D 1): 10.88 e6/mL | Viability ([1]; D 1): 95.11% | qP ([1]; D 1): 26.34 pg/c/d | Titer ([1]; D 2): 0.49 g/L | VCD ([1]; D 2): 11.15 e6/mL | Viability ([1]; D 2): 89.60% | qP ([1]; D 2): 43.95 pg/c/d | Titer ([1]; D 3): 0.62 g/L | VCD ([1]; D 3): 13.45 e6/mL | Viability ([1]; D 3): 87.50% | qP ([1]; D 3): 46.35 pg/c/d | Titer ([1]; D 4): 0.89 g/L | VCD ([1]; D 4): 20.16 e6/mL | Viability ([1]; D 4): 87.46% | qP ([1]; D 4): 43.97 pg/c/d | Titer ([2]; D 1): 0.47 g/L | VCD ([2]; D 1): 10.95 e6/mL | Viability ([2]; D 1): 94.83% | qP ([2]; D 1): 42.90 pg/c/d | Titer ([2]; D 2): 0.70 g/L | VCD ([2]; D 2): 9.61 e6/mL | Viability ([2]; D 2): 85.63% | qP ([2]; D 2): 72.84 pg/c/d | Titer ([2]; D 3): 0.96 g/L | VCD ([2]; D 3): 10.14 e6/mL | Viability ([2]; D 3): 82.33% | qP ([2]; D 3): 94.99 pg/c/d | Titer ([2]; D 4): 1.19 g/L | VCD ([2]; D 4): 12.66 e6/mL | Viability ([2]; D 4): 78.87% | qP ([2]; D 4): 94.23 pg/c/d | effect on viability ([2]; summary of Table 2): greater (but still modest) decreases in viability | growth arrest ([2]; summary of Table 2): more sustained growth arrest | IC50 (Colo205): 14.8 nM | Cell Cycle Distribution (%) G1 (CHO cells [3]; Day 1): 91.22% | Cell Cycle Distribution (%) G2/M (CHO cells [3]; Day 1): 2.74% | Cell Cycle Distribution (%) S (CHO cells [3]; Day 1): 6.04% | Cell Cycle Distribution (%) G1 (CHO cells [3]; Day 2): 74.82% | Cell Cycle Distribution (%) G2/M (CHO cells [3]; Day 2): 5.75% | Cell Cycle Distribution (%) S (CHO cells [3]; Day 2): 19.43% | Cell Cycle Distribution (%) G1 (CHO cells [3]; Day 3): 79.21% | Cell Cycle Distribution (%) G2/M (CHO cells [3]; Day 3): 3.49% | Cell Cycle Distribution (%) S (CHO cells [3]; Day 3): 17.3% | Cell Cycle Distribution (%) G1 (CHO cells [3]; Day 4): 78.68% | Cell Cycle Distribution (%) G2/M (CHO cells [3]; Day 4): 6.13% | Cell Cycle Distribution (%) S (CHO cells [3]; Day 4): 15.19% | IC50 (CDK4/Cyclin D1): 2.75 nM

CC(=O)c1c(C)c2cnc(Nc3ccc(N4CCNCC4)nn3)nc2n(C2CCCC2)c1=O [Compound M, 6-acetyl-8-cyclopentyl-5-methyl-2-((6-(piperazin-1-yl)pyridazin-3-yl)amino)pyrido[2,3-d]pyrimidin-7(8H)-one]
IC50 (Colo205): 92 nM | VCD (CHO cells [4]; 2.5 microM, D 1): 0.4656 e6/mL | VCD (CHO cells [4]; 2.5 microM, D 2): 0.6879 e6/mL | Viability (CHO cells [4]; 2.5 microM, D 2): 97.90% | VCD (CHO cells [4]; 2.5 microM, D 3): 1.1916 e6/mL | Viability (CHO cells [4]; 2.5 microM, D 3): 97.65% | VCD (CHO cells [4]; 2.5 microM, D 4): 2.1883 e6/mL | Viability (CHO cells [4]; 2.5 microM, D 4): 96.47% | VCD (CHO cells [4]; 5 microM, D 1): 0.4129 e6/mL | VCD (CHO cells [4]; 5 microM, D 2): 0.5439 e6/mL | Viability (CHO cells [4]; 5 microM, D 2): 97.90% | VCD (CHO cells [4]; 5 microM, D 3): 0.8760 e6/mL | Viability (CHO cells [4]; 5 microM, D 3): 97.67% | VCD (CHO cells [4]; 5 microM, D 4): 1.4543 e6/mL | Viability (CHO cells [4]; 5 microM, D 4): 95.90% | VCD (CHO cells [4]; 10 microM, D 1): 0.4204 e6/mL | VCD (CHO cells [4]; 10 microM, D 2): 0.4984 e6/mL | Viability (CHO cells [4]; 10 microM, D 2): 97.90% | VCD (CHO cells [4]; 10 microM, D 3): 0.7601 e6/mL | Viability (CHO cells [4]; 10 microM, D 3): 97.06% | VCD (CHO cells [4]; 10 microM, D 4): 1.2297 e6/mL | Viability (CHO cells [4]; 10 microM, D 4): 95.85% | VCD (CHO cells [4]; 20 microM, D 1): 0.3915 e6/mL | VCD (CHO cells [4]; 20 microM, D 2): 0.4101 e6/mL | Viability (CHO cells [4]; 20 microM, D 2): 97.90% | VCD (CHO cells [4]; 20 microM, D 3): 0.5348 e6/mL | Viability (CHO cells [4]; 20 microM, D 3): 97.31% | VCD (CHO cells [4]; 20 microM, D 4): 0.8023 e6/mL | Viability (CHO cells [4]; 20 microM, D 4): 96.04% | cytotoxicity and growth arrest properties (CHO cells [4]; compared with Compound A): very similar, at similar concentrations, to the properties of Compound A | increase in specific productivity (qP) of recombinant protein [5]: > 200% | IC50 (CDK4/Cyclin D1): 15 nM

From patent US20180087079A1, “METHODS OF USING CELL-CYCLE INHIBITORS TO MODULATE ONE OR MORE PROPERTIES OF A CELL CULTURE” (AMGEN INC., priority 2013, published 2018)
